Test results taken from ChEMBL document CHEMBL1124202, “Synthesis and evaluation of multisubstrate inhibitors of an oncogene-encoded tyrosine-specific protein kinase. 2” (J Med Chem, 1988).

Biological target: T1, Tyrosine-protein kinase transforming protein Abl (Abelson murine leukemia virus, UniProt P00521)
T1 sequence (P00521 whole entry): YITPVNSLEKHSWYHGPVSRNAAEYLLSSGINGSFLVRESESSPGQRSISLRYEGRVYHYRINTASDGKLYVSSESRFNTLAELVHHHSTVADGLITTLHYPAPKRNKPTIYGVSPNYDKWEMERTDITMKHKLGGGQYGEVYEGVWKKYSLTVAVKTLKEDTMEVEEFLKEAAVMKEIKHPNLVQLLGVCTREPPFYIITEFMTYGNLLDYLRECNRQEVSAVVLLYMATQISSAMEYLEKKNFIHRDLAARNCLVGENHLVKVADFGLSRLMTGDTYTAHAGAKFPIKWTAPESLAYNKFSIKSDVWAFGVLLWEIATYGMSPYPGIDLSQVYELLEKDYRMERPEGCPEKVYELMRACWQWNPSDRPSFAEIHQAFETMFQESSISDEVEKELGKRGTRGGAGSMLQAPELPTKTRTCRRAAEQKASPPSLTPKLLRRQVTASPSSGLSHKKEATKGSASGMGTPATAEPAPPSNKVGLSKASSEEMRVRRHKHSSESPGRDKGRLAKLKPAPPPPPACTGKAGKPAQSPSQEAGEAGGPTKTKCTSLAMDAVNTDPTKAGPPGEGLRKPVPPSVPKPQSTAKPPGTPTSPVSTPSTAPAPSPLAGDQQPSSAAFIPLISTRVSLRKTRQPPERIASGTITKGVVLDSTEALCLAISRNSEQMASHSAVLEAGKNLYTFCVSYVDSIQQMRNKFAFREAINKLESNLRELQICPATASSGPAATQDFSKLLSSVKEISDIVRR
Test: Inhibition of p60v-abl tyrosine kinase from Abelson murine leukemia virus

SMILES | IC50 [µM]
CC(=O)NC(Cc1ccc(NP(=O)(O)OP(=O)(O)OP(=O)(O)OC[C@H]2O[C@@H](n3cnc4c(N)ncnc43)[C@H](O)[C@@H]2O)cc1)C(N)=O (stereo partly drawn) | 44
Cc1ccc(NP(=O)(O)OP(=O)(O)OP(=O)(O)OP(=O)(O)OC[C@H]2O[C@@H](n3cnc4c(N)ncnc43)[C@H](O)[C@@H]2O)cc1 | 16
COc1ccc(CNP(=O)(O)OP(=O)(O)OP(=O)(O)OC[C@H]2OC(n3cnc4c(N)ncnc43)[C@H](O)[C@@H]2O)cc1 (stereo partly drawn) | 90
Cc1ccc(NP(=O)(O)OP(=O)(O)OP(=O)(O)OC[C@H]2O[C@@H](n3cnc4c(N)ncnc43)[C@H](O)[C@@H]2O)cc1 | 150
Nc1ncnc2c1ncn2[C@@H]1O[C@H](COP(=O)(O)OP(=O)(O)OP(=O)(O)Oc2ccccc2)[C@@H](O)[C@H]1O | 13
Nc1ncnc2c1ncn2[C@@H]1O[C@H](COP(=O)(O)OP(=O)(O)OP(=O)(O)OP(=O)(O)Oc2ccccc2)[C@@H](O)[C@H]1O | 41
CC(=O)NCCNP(=O)(O)OP(=O)(O)OP(=O)(O)OC[C@H]1O[C@@H](n2cnc3c(N)ncnc32)[C@H](O)[C@@H]1O | 25
CC(=O)NC(Cc1ccc(NP(=O)(O)OP(=O)(O)OP(=O)(O)OP(=O)(O)OC[C@H]2O[C@@H](n3cnc4c(N)ncnc43)[C@H](O)[C@@H]2O)cc1)C(N)=O (stereo partly drawn) | 110
